Key:
[1] = system: HCV replicon cells; assay: Western blot of NS5A and NS5B in HCV replicon cells (total lysate, membrane fraction); assay type: cell-based, hepatitis C virus
Protocol: Example 10: Preparation of a Membrane Fraction
Cells grown to about 80% confluence in a culture dish with a diameter of 10 cm were scraped using PBS. The cells were pelleted by centrifugation at 220 g for 10 minutes. The pellet was resuspended in 1 mL hypotonic buffer (10 mM Tris-HCL pH 7.5, 10 mM KCL, 1.5 mM MgCl2, 0.5 mM PMSF (phenylmethylsulfonyl fluoride), and 2 μg/mL leupeptin), and incubated at 4° C. for 10 minutes. The suspension was homogenized using 75 strokes of a glass dounce homogenizer using a tight-fitting pestle (Sigma, St. Louis, Mo., USA). Nuclei and undestroyed cells were removed by centrifugation at 220 g for 10 minutes at 4° C. The cell membrane in the thus-obtained supernatant was directly centrifuged at 68,000 g for 1 hour at 4° C. using an ultracentrifuge tube in a micro-ultracentrifuge (Hitachi, Japan). Upon centrifugation, the coarse replication complex fraction was recovered from the pellet and used for western blot analysis.
Example 14: Western Blot Analysis
Cell extracts were separated by SDS-PAGE and then transferred to a nitrocellulose membrane. After blocking, the membrane was incubated with indicated primary antibody and subsequently incubated with secondary antibody. The samples were detected with enhanced chemiluminescence reagents (Santa Cruz, Calif., USA).

[2] = system: STAT1, STAT2, IRF9, OAS1, and ISG15; assay: Real-time qRT-PCR of interferon-stimulated genes in HCV replicon cell; assay type: cell-based, human; details: 2 μM; FIG. 14
Protocol: Example 19: Real-Time Quantitative Reverse Transcriptase PCR Analysis
Real-time quantitative reverse transcriptase PCR (qRT-PCR) was performed using SYBR Green PCR Master Mix (Invitrogen/Applied Biosystem, Carlsbad, Calif., USA) and ABI Prism 7300 Real-time PCR System (Applied Biosystems, Carlsbad, Calif., USA) according to the manufacturer's instructions. Calculations were performed based on […] method using the following equation: R (ratio)=2-[ΔCT (sample)-ΔCT (control group)]. The data were expressed as fold change of the treated group relative to the control group and standardized relative to the glyceraldehyde 3-phosphate dehydrogenase (GAPDH) level.

[3] = in vitro; assay type: cell-based, hepatitis C virus; details: genotype 2a JFH1; FIG. 11b
[4] = system: genotype 2a (JFH1) replication cells; assay: microbe, parasite or virus in culture; assay type: cell-based, hepatitis C virus; details: Hepatitis C virus
[5] = target: T1, CypA and NS5A or NS5B (Homo sapiens, UniProt P62937); assay: Co-immunoprecipitation and mammalian two-hybrid analysis of CypA with NS5A or NS5B; assay type: cell-based; details: FIG. 13a, 13b
T1 construct: 1 mg/mL of HCV Con1b replicon protein lysate; endogenous in cells; host or cells: Huh7 cells carrying the HCV Con1b subgenomic replicon
T1 sequence (P62937 whole entry): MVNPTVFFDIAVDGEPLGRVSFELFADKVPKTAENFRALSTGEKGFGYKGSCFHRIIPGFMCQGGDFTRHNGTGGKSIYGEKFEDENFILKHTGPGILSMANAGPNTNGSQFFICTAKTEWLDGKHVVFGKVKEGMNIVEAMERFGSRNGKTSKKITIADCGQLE
Protocol: Example 17: Co-Immunoprecipitation Assay
For co-immunoprecipitation, 4 μg of specific antibody and 1 mg/mL of HCV Con1b replicon protein lysate to a final volume of 500 μL were rotated at 4° C. for 4 hours. Then, 20 μL of the washed protein A/G PLUS agarose (Santa Cruz, Calif., USA) was added thereto and incubated at 4° C. overnight. Subsequently, the sample was washed 3 times with Triton-wash-buffer, resuspended, and denatured in 5×SDS-PAGE buffer at 95° C. for 5 minutes. The resultant was centrifuges at 19,000 g for 1 minute at 4° C. and subjected to western blot analysis.
Example 18: Mammalian Two-Hybrid System
The interaction between intracellular CypA-NS5A and CypA-NS5B was confirmed by the two-hybrid screening technology using CheckMate™ mammalian two-hybrid system (Promega, Madison, Wis., USA) according to the manufacturer's instructions. In brief, pACT- and pBIND-based plasmids were co-transfected (TurboFect, FermentasC) to Huh7 cells along with a pG5luc reporter construct, and incubated at 37° C. After 72 hours, the cell lysate was analyzed regarding the luciferase activity.

[6] = target: T2, GST-CypA and NS5A or NS5B (Homo sapiens, UniProt P62937); assay: GST pull-down assay of CypA with NS5A or NS5B; assay type: binding; details: 2 μM and 4 μM; FIG. 12b
T2 construct: made in house; host or cells: E. coli (pGEX-KG)
T2 sequence (P62937 whole entry): as above
Protocol: Example 15: Expression and Purification of GST Proteins
A plasmid pGEX-KG was used for the expression of recombinant proteins in E. coli. GST-CypA, a mutant GST-CypAR55A (a mutation at PPIase site), GST-CypB, GST-NS5A, and the full length GST-NS5B were prepared by a standard replication process. The bacteria expression vector, pGEX-KG, was transformed into TOPIOF cells (Promega, Madison, Wis., USA). The bacteria culture was grown in LB medium containing 100 μg/mL of ampicillin until the optical density at 600 nm reached 0.8 to 1.0. Then, 0.1 mM isopropyl β-D-1-thiogalactopyranoside (IPTG) was added thereto to induce the expression of a GST fusion protein and incubated further at 30° C. for 4 hours. The resulting bacteria was pelleted by centrifugation at 340 g for 20 minutes at 4° C., resuspended in 10 mL PBST (PBS containing 1% Triton X-100), added with 1 mM PMSF, and subjected to sonication at 25% amplitude with a brake at intervals of 10 seconds for 30 minutes. Upon sonication, the bacteria extract was centrifuged at 340 g for 5 minutes at 4° C. and the supernatant containing GST protein was stored at −80° C. The GST fusion protein was cleaved in thrombin-cleaving buffer containing 50 units of thrombin overnight so that the recombinant proteins could be released from the GST-tagged glutathione resin. […]

SMILES: COc1cc(C(C(=O)NC2CCCCC2)N(C(=O)Cc2c[nH]c3ccccc23)c2ccc(C(C)C)cc2)cc(OC)c1OC (stereo not shown) [WJCPA-126, N-cyclohexyl-2-[(2-1H-indol-3-yl-acetyl)-(4-isopropyl-phenyl)-amino]-2-(3,4,5-trimethoxy-phenyl)-acetamide]
- levels of NS5A and NS5B proteins ([1]; 0.5 μM to 4 μM, FIG. 10a): decrease in the levels of NS5A and NS5B proteins in a dose-dependent manner
- NS5A and NS5B protein levels in total lysate and membrane fraction ([1]; 2 μM, HCV Con1b replicon cells, FIG. 10b): decrease the protein levels of NS5A and NS5B in both the total lysate and the membrane fraction
- mRNA expression levels of STAT1, STAT2, IRF9, OAS1, and ISG15 [2]: increase the mRNA expression levels of STAT1, STAT2, IRF9, OAS1, and ISG15 in a time-dependent manner
- CC50 [3]: 22.3 ± 4.23 µM
- EC50 [4]: 1.1 ± 0.05 µM
- interactions between CypA and NS5A or NS5B [5]: destroys the interactions between CypA and NS5A or NS5B
- binding between GST-CypA and NS5A or NS5B [6]: significant decrease of the binding between GST-CypA and NS5A or NS5B
